Assay results: patent publication US11014961B2, “Self-labeling miniproteins and conjugates comprising them” (priority 2017, dated 2021)
No end group written: not given here.

Legend:
Format in all cases: biochemical
[1] = Second order rate constant of the reaction between miniprotein (MP) and capture agent (CA), LC-MS TIC peak integration; details: for Second order rate constant: 0.1 mM MP, 0.5 mM CA
[2] = Labeling conversion of MP with the selection capture agent (LC-MS TIC); details: 0.5 mM CA, 0.1 mM MP, 5 mM TCEP, 1× selection buffer, pH 7.4
Method: All 10 putative self-labeling MPs were chemically synthesized (MP01 and MP02 were additionally made with the full C-terminal constant region). To determine the importance of the C-terminal tag, a kinetic analysis on MP01 was conducted comparing the sequence with and without the tag. […] The remainder of the MPs all reacted with varying second order rate constants and to differing product distributions from multiple cysteine labeling sites (Table 3). […] Of the sequences containing multiple cysteines, all reacted to differing extents. […] On the other hand, MP08 (SEQ ID NO: 53) reacted sluggishly (0.04 μM^−1 s^−1) to produce singly and doubly labeled species. The sole sequence containing three cysteines, MP05 (SEQ ID NO: 44), yielded a mixture of labeled species within an 8-hour reaction—primarily existing with either 2 or 3 labels with a rapid initial labeling process (0.93±0.11 μM^−1 s^−1). Finally, MP01, 07 and 10 (SEQ ID NOs: 13, 52, and 59, respectively) were probed via proteolytic digest-LC-MS/MS analysis, this confirmed that the cysteines were labeled and not an alternative amino acid. […] Conditions used were 0.5 mM CA, 0.1 mM MP, 5 mM TCEP, 1× selection buffer, pH 7.4.

[3] = Labeling conversion of MP with the modified capture agent (LC-MS TIC); details: 0.5 mM mCA, 0.1 mM MP, 5 mM TCEP, 1× selection buffer, pH 7.4
Method: A solution consisting of 5 mM carboxy-(PEG)12-thiol, 500 mM pentafluorophenyl sulfide, 20 mM triphenylphosphine and 230 mM DIEA in acetonitrile was vortexed and left at room temperature for 4 hours. The reaction was then diluted with 10.6× volume of 95% A: 5% B, solid phase extracted and lyophilized. The resulting material was analyzed by LCMS (method 2). This product will later be referred to as mCA (modified CA).
All 10 putative self-labeling MPs were chemically synthesized (MP01 and MP02 were additionally made with the full C-terminal constant region). To determine the importance of the C-terminal tag, a kinetic analysis on MP01 was conducted comparing the sequence with and without the tag. […] The remainder of the MPs all reacted with varying second order rate constants and to differing product distributions from multiple cysteine labeling sites (Table 3). […] Of the sequences containing multiple cysteines, all reacted to differing extents. […] On the other hand, MP08 (SEQ ID NO: 53) reacted sluggishly (0.04 μM^−1 s^−1) to produce singly and doubly labeled species. The sole sequence containing three cysteines, MP05 (SEQ ID NO: 44), yielded a mixture of labeled species within an 8-hour reaction—primarily existing with either 2 or 3 labels with a rapid initial labeling process (0.93±0.11 μM^−1 s^−1). […]

Substance: MHQKYKMTKDCFFSFLAHHKKRKLYPMSG-NH2 [MP01]
- Second order rate constant ([1]; 5 mM TCEP, 1× selection buffer pH 7.4, RT): 0.34 M⁻¹ s⁻¹
- Second order rate constant ([1]; 5 mM TCEP, 1× selection buffer pH 7.4, RT, a: average of three MP concentrations, c: labeled 1-3 times, d: labeled 1-2 times): 0.34 ± 0.06^a/ M^−1 s^−1
- second order rate constant, second MP01 construct ([1]; MP01 construct with C-terminal tag (per Table 3 footnote b), standard conditions): 0.28 M⁻¹ s⁻¹
- Second order rate constant ([1]; footnote b: construct with the full length C-terminal region (-SGSLGHHHHHHRL)): 0.28 ± 0.02^b M^−1 s^−1
- conversion with selection CA [2]: 83%
- conversion with modified CA (mCA) [3]: 91%
